Holding throughout (format): physicochemical
A short description of series [1]: Stability of supersaturated phloretin solution (60 ppm): crystallization onset and final concentration. The procedure: To assess stability performance, the solution concentration of rhoifolin was determined over time. At specific time points 4 g of the solution were sampled, filtered and mixed with 1 g of acetonitrile. The solution was injected into a Vanquish UHPLC from Thermo Scientific coupled with a UV detector. The column was an Accucore Vanquish C18+(1.5 μm, 2.1×100 mm), eluted with a mixture of acetonitrile and water at 0.3 mL/min. The elution protocol was as follows: 5% acetonitrile (3 minutes), followed by a gradient from 5% to 80% of acetonitrile in 10 minutes. The corresponding peak of Rhoifolin was integrated, and the concentration was calculated based on a previously established calibration curve. The onset of crystallization is expressed as the point where the solution concentration passes below 95% of its initial value of 100%. The value was obtained by algorithmic curve fitting. […] In this example, and throughout “d” refers to days. Aqueous solutions of Berry extract were prepared at a concentration of 25 ppm, 50 ppm, 75 ppm, and 100 ppm by dissolving dry Berry extract in 99 g of buffer solution (citrate buffer, 100 mM, pH 2.8, 0.2% sodium benzoate). Then 1 gram of stock solution of phloretin in PG at 6000 ppm was added and mixed quickly with the aqueous phase. The samples were stored at 8° C., and aliquots were removed over the course of three months. A control solution of phloretin without Berry extract was also prepared. […] Aqueous solutions were prepared in 99 gram of buffer solution (citrate buffer, 100 mM, pH 2.8, 0.2% sodium benzoate) with saponin. Then 1 gram of stock solution of phloretin in PG at 6000 ppm was added and mixed quickly with the aqueous phase. The samples stored at 8° C., and aliquots were removed over the course of 5 months. A control solution of phloretin without saponin was prepared. The concentration of saponin was 100 ppm. […] Saponin is Quillaja P (Firmenich SA).

A short description of series [2]: Stability of supersaturated naringenin solution (60 ppm): crystallization onset and final concentration. On the procedure: To assess stability performance, the solution concentration of rhoifolin was determined over time. At specific time points 4 g of the solution were sampled, filtered and mixed with 1 g of acetonitrile. The solution was injected into a Vanquish UHPLC from Thermo Scientific coupled with a UV detector. The column was an Accucore Vanquish C18+(1.5 μm, 2.1×100 mm), eluted with a mixture of acetonitrile and water at 0.3 mL/min. The elution protocol was as follows: 5% acetonitrile (3 minutes), followed by a gradient from 5% to 80% of acetonitrile in 10 minutes. The corresponding peak of Rhoifolin was integrated, and the concentration was calculated based on a previously established calibration curve. The onset of crystallization is expressed as the point where the solution concentration passes below 95% of its initial value of 100%. The value was obtained by algorithmic curve fitting. […] In this example, and throughout “d” refers to days. Aqueous solutions of Berry extract were prepared at a concentration of 25 ppm, 50 ppm, 75 ppm, and 100 ppm by dissolving dry Berry extract in 99 g of buffer solution (citrate buffer, 100 mM, pH 2.8, 0.2% sodium benzoate). Then 1 gram of stock solution of naringenin in PG at 6000 ppm was added and mixed quickly with the aqueous phase. The samples were stored at 8° C., and aliquots were removed over the course of 40 days. A control solution of naringenin without Berry extract was also prepared. […] Aqueous solutions of Berry extract were prepared at a concentration of 100 ppm by dissolving dry Berry extract in 99 g of buffer solution (citrate buffer, 100 mM, pH 2.8, 0.2% sodium benzoate) with various additional additives. Then 1 gram of stock solution of naringenin in PG at 6000 ppm was added and mixed quickly with the aqueous phase. The samples were stored at 8° C., and aliquots were removed over the course of five months. A control solution of naringenin without Berry extract or additional additive was also prepared. A solution with Berry extract, but no additional additive was also prepared. The concentration of the additional additives is 100 ppm in each case. […] Saponin is Quillaja P (Firmenich SA). Aqueous solutions of black rice extracts were prepared at a concentration of 100 ppm by dissolving dry black rice extract in 99 g of buffer solution (citrate buffer, 100 mM, pH 2.8, 0.2% sodium benzoate) with various additional additives. Then 1 gram of stock solution of naringenin in PG at 6000 ppm was added and mixed quickly with the aqueous phase. The samples were stored at 8° C., and aliquots were removed over the course of five months. A control solution of naringenin without black rice extract or additional additive was also prepared. A solution with black rice extract, but no additional additive was also prepared. The concentration of the additional additives is 100 ppm in each case. […] Saponin is Quillaja P (Firmenich SA). Aqueous solutions were prepared in 99 gram of buffer solution (citrate buffer, 100 mM, pH 2.8, 0.2% sodium benzoate) with various additives. Then 1 gram of stock solution of naringenin in PG at 6000 ppm was added and mixed quickly with the aqueous phase. The samples were stored at 8° C., and aliquots were removed over the course of 5 months. A control solution of naringenin without additive was prepared. The concentration of the additives is 100 ppm in each case. […] Saponin is Quillaja P (Firmenich SA). Aqueous solutions of Berry extract were prepared at a concentration of 25 ppm by dissolving dry Berry extract in 99 g of buffer solution (citrate buffer, 100 mM, pH 2.8, 0.2% sodium benzoate) with various amounts of added saponin. Then 1 gram of stock solution of naringenin in PG at 6000 ppm was added and mixed quickly with the aqueous phase. The samples were stored at 8° C., and aliquots were removed over the course of five months. A control solution of naringenin without Berry extract or additional additive was also prepared. A solution with Berry extract, but no additional additive was also prepared. […]

Series [3] in a line: Stability of supersaturated rhoifolin solution (20 ppm): solution concentration over time by UHPLC, onset of crystallization. Conditions: for 50% / Fin. Conc. (ppm) / Onset / 50% (d), days for 50% crystallization of rhoifolin: room temperature, 40 days. The procedure:
Aqueous solutions of various anthocyanin extracts were prepared at concentrations of 100 ppm, 200 ppm, and 300 ppm by dissolving dry anthocyanin extract in 99 g of buffer solution (citrate buffer, 100 mM, pH 2.8, 0.2% sodium benzoate). Then 1 gram of stock solution of rhoifolin in propylene glycol (PG) at 2000 ppm was added and mixed quickly with the aqueous phase. The samples were left at room temperature, and aliquots were removed over the course of three months. A control solution of rhoifolin without anthocyanin was also prepared.
To assess stability performance, the solution concentration of rhoifolin was determined over time. At specific time points 4 g of the solution were sampled, filtered and mixed with 1 g of acetonitrile. The solution was injected into a Vanquish UHPLC from Thermo Scientific coupled with a UV detector. The column was an Accucore Vanquish C18+(1.5 μm, 2.1×100 mm), eluted with a mixture of acetonitrile and water at 0.3 mL/min. The elution protocol was as follows: 5% acetonitrile (3 minutes), followed by a gradient from 5% to 80% of acetonitrile in 10 minutes. The corresponding peak of Rhoifolin was integrated, and the concentration was calculated based on a previously established calibration curve. The onset of crystallization is expressed as the point where the solution concentration passes below 95% of its initial value of 100%. The value was obtained by algorithmic curve fitting. […] In this example, and throughout “d” refers to days.
Aqueous solutions of black rice extract were prepared at a concentration of 100 ppm by dissolving dry black rice extract in 99 g of buffer solution (citrate buffer, 100 mM, pH 2.8, 0.2% sodium benzoate) with various additional additives. Then 1 gram of stock solution of rhoifolin in PG at 2000 ppm was added and mixed quickly with the aqueous phase. The samples were left at room temperature, and aliquots were removed over the course of 40 days. A control solution of rhoifolin without black rice or additional additives was also prepared. A solution with black rice, but no additional additive was also prepared. The concentration of the additional additives is 100 ppm in each case. […] Saponin is Quillaja P (Firmenich SA).
Aqueous solutions were prepared in 99 gram of buffer solution (citrate buffer, 100 mM, pH 2.8, 0.2% sodium benzoate) with various additives. Then 1 gram of stock solution of rhoifolin in PG at 2000 ppm was added and mixed quickly with the aqueous phase. The samples were left at room temperature, and aliquots were removed over the course of 40 days. A control solution of rhoifolin without additive was prepared. The concentration of the additives is 100 ppm in each case. […] Saponin is Quillaja P (Firmenich SA).

[4] abbreviates: Example 10 control: phloretin 60 ppm without Berry extract, pH 2.8, 8° C., three months.
[5] abbreviates: Example 11 control: phloretin 60 ppm without saponin, 8° C., 5 months.
The mark [6] stands for this setting: naringenin 60 ppm + 100 ppm Berry extract + 100 ppm additive, 8° C., five months.
Where [7] appears, read: naringenin 60 ppm + 100 ppm additive alone, 8° C., 5 months.
The mark [8] stands for this setting: naringenin 60 ppm + 100 ppm black rice extract + 100 ppm additive, 8° C., five months.
Where [9] appears, read: rhoifolin 20 ppm + 100 ppm additive alone.
The mark [10] stands for this setting: rhoifolin 20 ppm + 100 ppm black rice extract + 100 ppm additive.
[11] abbreviates: Example 4 control: naringenin 60 ppm without Berry extract, pH 2.8, 8° C., 40 days.
[12] abbreviates: Example 5 control: naringenin 60 ppm without Berry extract or additive, 8° C., five months.
Where [13] appears, read: Example 6 control: naringenin 60 ppm without black rice extract or additive, 8° C., five months.
[14] abbreviates: Example 7 control: naringenin 60 ppm without additive, 8° C., 5 months.
Setting [15] is: Example 8 control: naringenin 60 ppm without Berry extract or additive, 8° C., five months.
The mark [16] stands for this setting: Example 9 control: naringenin 60 ppm without saponin, 8° C., five months.
The mark [17] stands for this setting: Example 2 control: rhoifolin 20 ppm without black rice extract or additive.
Where [18] appears, read: Example 3 control: rhoifolin 20 ppm without additive.
Setting [19] is: control: rhoifolin 20 ppm without extract, pH 2.8, room temperature.

Data on four molecules can be found in patent publication US20230054857A1, “FLAVONOID COMPOSITIONS AND RELATED USES” (Firmenich SA, priority 2020, published 2023).

SMILES strings stand for the structures.

Turning to `O=C(CCc1ccc(O)cc1)c1c(O)cc(O)cc1O` [Phloretin, phloretin], in series [1] (setting [4]), the “Fin. Conc. (ppm)” value was 33.8 ppm and the “Onset” value stood at 13.6 days. Also, in series [1] (setting [5]), the “Fin. Conc. (ppm)” value amounted to 33.8 ppm and the “Onset” value stood at 13.6 days.
`C=C1C[C@@]23CC[C@H]4[C@@](C)(CCC[C@@]4(C)C(=O)O[C@@H]4O[C@H](CO)[C@@H](O)[C@H](O)[C@H]4O)[C@@H]2CC[C@]1(O[C@@H]1O[C@H](CO)[C@@H](O)[C@H](O[C@@H]2O[C@H](CO)[C@@H](O)[C@H](O)[C@H]2O)[C@H]1O[C@@H]1O[C@H](CO)[C@@H](O)[C@H](O)[C@H]1O)C3` [Rebaudioside A, reference compound]: the “Fin. Conc. (ppm)” value in series [2] (setting [6]) is 34.1 ppm; in series [2] (setting [7]) it was 31.0 ppm; in series [2] (setting [8]) it was 35.4 ppm; in series [3] (setting [9]), 4.04 ppm; in series [3] (setting [10]) it was 5.96 ppm. Moreover, the “Onset” value was 15.8 days in series [2] (setting [6]); 7.5 days in series [2] (setting [7]); 18.3 days in series [2] (setting [8]); 7.5 days in series [3] (setting [9]); 10.8 days in series [3] (setting [10]). Besides, the “50%” value in series [3] (setting [9]) stood at 13.6 days. Moreover, the “50% (d), days for 50% crystallization of rhoifolin” value in series [3] (setting [10]) was 18.8 days.
Take `O=C1C[C@@H](c2ccc(O)cc2)Oc2cc(O)cc(O)c21` [Naringenin, naringenin]: the “Fin. Conc. (ppm)” value in series [2] (setting [11]), in series [2] (setting [12]), in series [2] (setting [13]), in series [2] (setting [14]), in series [2] (setting [15]) and in series [2] (setting [16]) was 24.6 ppm in each case. In addition, the “Onset” value in series [2] (setting [11]), in series [2] (setting [12]), in series [2] (setting [13]), in series [2] (setting [14]), in series [2] (setting [15]) and in series [2] (setting [16]) was 0.3 days in each case.
Turning to `C[C@@H]1O[C@@H](O[C@H]2[C@H](Oc3cc(O)c4c(=O)cc(-c5ccc(O)cc5)oc4c3)O[C@H](CO)[C@@H](O)[C@@H]2O)[C@H](O)[C@H](O)[C@H]1O` [Rhoifolin, rhoifolin], in series [3] (setting [17]), the “50% (d), days for 50% crystallization of rhoifolin” value worked out at 8.2 days; the “Fin. Conc. (ppm)” value was 3.32 ppm; the “Onset” value worked out at 4.1 days. Further, in series [3] (setting [18]), the “50%” value was 8.2 days, the “Fin. Conc. (ppm)” value worked out at 3.32 ppm and the “Onset” value is 4.1 days. For the same molecule, the “Onset (d) of crystallization” value in series [3] (control: rhoifolin 20 ppm without anthocyanin extract, citrate buffer pH 2.8, room temperature) stood at 4.1 days. In series [3] (setting [19]), the “50% Rem (d), days when only 50% of initial rhoifolin remained in solution” value is 8.2 days and the “Fin. Conc. (ppm) of rhoifolin in solution” value is recorded as 3.3 ppm.
